Experiments:
U373 glioblastoma cells = test: In vitro adhesion assay to ECM proteins, U373; assay type: cell-based, human; details: laminin-, fibronectin-, and collagen-coated plates, 0.1 μM to 1 μM for 24 hours
Description: Human brain tumor cell lines U-373 MG and breast cancer cell lines BT-20 and MDA-MB-231 were obtained from American Type Culture Collection (ATCC, Rockville, Md.) and maintained in liquid culture using DMEM supplemented with 10% fetal bovine serum and antibiotics. Fibroblast conditioned medium was used as a source of chemoattractant in vitro invasion assays. Conditioned medium was prepared as described in the literature (Albini et.al., 1987, Cancer Res., 47:3239-3245).
In vitro adhesion assays were performed to (a) study the baseline adhesive properties of various breast cancer and glioblastoma cell lines and (b) evaluate the effects of phorboxazole A derivatives on the adhesive properties of breast cancer and glioblastoma cells. The plates for the adhesion assays were precoated with the extracellular matrix proteins laminin, fibronectin, or type IV collagen (each at a final concentration of 1 μg/ml in PBS) overnight at 4° C. and dried. On the day of the experiment, the wells were rehydrated and blocked with 10% bovine serum albumin in PBS for 1 hour at room temperature and used for the adhesion assays, as described below.
The effects of synthetic phorboxazole A and specific derivatives on adhesion of breast cancer and glioblastoma cells was studied. Exponentially growing cells in DMEM were incubated with phorboxazole compounds or genistein as a control at concentrations ranging from 0.1 μM to 1 μM for 24 hours in a humidified 5% CO2 atmosphere. DMSO (0.1%) was included as a vehicle control. After treatment, cells were detached from the flasks with 0.05% trypsin (Life Technologies) resuspended in DMEM, incubated at 37° C. for 2 hours to allow them to recover from the trypsinization stress and examined for their ability to adhere to plates precoated with ECM proteins.
In adhesion assays, cells were centrifuged, washed twice with serum-free DMEM, counted and resuspended in serum-free DMEM to a final concentration of 2.5×10^5 cells/ml. […] The adherent fraction was quantitated using MTT (3-[4,5-dimethylthiazol-2-yl]-2,5-diphenyltetrazolium bromide) assays. […] The absorbance of each well was measured in a microplate reader (Labsystems) at 540 nm and a reference wavelength of 690 nm.
To translate the OD540 values into the number of cells in each well, the OD540 values were compared to those on standard OD540-versus-cell number curves generated for each cell line. The adherent fractions of cells treated with phorboxazole A derivatives were compared to those of DMSO-treated control cells and the percent inhibition of adhesion was determined using the formula: [formula]
Each treatment condition was evaluated in duplicate in 3 independent experiments. The IC50 values were calculated by non-linear regression analysis. […]

[1] = test system: human breast cancer cell line BT-20; test: In situ detection of apoptosis (nick-end-labeling, confocal microscopy); assay type: cell-based; details: final concentration of 100 μM, 24 hours
Description: The synthetic Phorboxazole A and the synthetic analogs were also assayed for apoptosis-inducing activity. Assay for apoptosis was performed by the in situ nick-end-labeling method using an ApopTag in situ detection kit (Oncor, Gaithersburg, Md.) according to the manufacturer's reconmmendations. Immunofluorescence was used to examine the morphologic features of human breast cancer cell line BT-20 (American Type Culture Collection Rockville, Md.) treated with the novel phorboxazole A derivatives of the present invention.
Cells were trypsinized from rapidly growing tissue culture flasks and seeded onto sterile 22 mm^2 coverslips in 6-well culture plates. Cells on coverslips were returned to the incubator for 24 hours prior to treatment. The phorboxazole A derivatives were added to the cells from a stock solution made in DMSO to a final concentration of 100 μM. Final DMSO concentration were kept at 0.1% in both test samples and controls. Cells were returned to a 37° C. incubation for 24 hours before further processing. At 24 hours, coverslips were fixed in −20° C. methanol for 15 minutes followed by a 15 minute incubation in phosphate buffered saline +0.1% Triton X-100 (PBS-Tx). Coverslips were then incubated with a monoclonal antibody against α-tubulin (Sigma Chemical Co., St. Louis, Mo.) at a dilution of 1:1000 for 40 minutes in a humidified chamber at 37° C. Coverslips were washed for 15 minutes in PBS-Tx followed by a 40 minute incubation with goat anti-mouse IgG antibody conjugated to FITC (Amersham Corp., Arlington Heights, Ill.). The coverslips were again rinsed in PBS-Tx and incubated with 5 μM TOTO-3 (Molecular Probes, Eugene, Oreg.) for 20 minutes to label the nuclear DNA. Coverslips were immediately inverted onto slides in Vectashield (Vector Labs, Burlingame) to prevent photobleaching, sealed with nail varnish and stored at 4° C.
Slides were examined using a Bio-Rad MRC-1024 Laser Scanning Confocal Microscope mounted on a Nikon Eclipse E800 upright microscope with high numerical aperture objectives. […]

## C=C1C[C@@H]2C[C@@H]3C[C@@H](O)C[C@@H](O3)c3coc(n3)/C=C/C[C@H]3O[C@@H](/C(C)=C/c4coc(C[C@]5(O)C[C@H](OC)C[C@H]([C@H](O)/C=C(C)/C=C/[C@@H](C/C=C/Br)OC)O5)n4)[C@H](C)[C@@H](OC(=O)/C=C\C[C@@H](C1)O2)[C@H]3C [Compound 1, Phorboxazole A]
U373 glioblastoma cells
  Inhibition of cell adhesion: active
[1]
  Apoptosis-inducing activity: apoptotic activity

Source: patent publication US6797721B2, “Phorboxazole derivatives for treating cancer” (Parker Hughes Institute, priority 1999, dated 2004)
